In US20230120564A1, “PYRIDO[3,4-D]PYRIMIDINE DERIVATIVE AND THERAPEUTIC PHARMACEUTIC COMPOSITION COMPRISING SAME” (KOREA INSTITUTE OF SCIENCE AND TECHNOLOGY, priority 2020, published 2023):

Experiments:
Assay in all cases: full kinase panel biochemical assay
CSK = CSK (Homo sapiens, UniProt P41240); conditions: single concentration of 1 μM; read-out: percent inhibition of CSK
Procedure: (§1) In order to measure the protein kinase inhibitory activity (% inhibition) of the compound of the present invention, biochemical assay was performed in the full kinase panel. As a test compound, Compound No. 4 was used. The percent inhibition of each kinase when treated with the test compound at a single concentration of 1 μM was measured, and the residual enzyme activity values (%) of the kinases were calculated. Kinases whose calculated residual enzyme activity values (%) was 30% or less (i.e., kinases inhibited by 70% or more) are as follows: ABL1, ABL2/ARG, ACK1, ARAF, BLK, BMX/ETK, BRAF, BRK, BTK, c-Kit, c-Src, CSK, DDR1, DDR2, EPHA1, EPHA2, EPHA3, EPHA4, EPHA5, EPHA6, EPHA7, EPHA8, EPHB1, EPHB2, EPHB3, EPHB4, ERBB2/HER2, ERBB4/HER4, FGFR1, FGFR2, FGFR3, FGR, FLT1/VEGFR1, FLT4/VEGFR3, FMS, FRK/PTK5, FYN, GCK/MAP4K2, HCK, HGK/MAP4K4, JAK1, JAK2, KDR/VEGFR2, KHS/MAP4K5, LCK, LYN, LYN B, MEKK1, MLK4, MYLK3, NEK5, P38a/MAPK14, P38b/MAPK11, PDGFRa, PDGFRb, PEAK1, RET, RIPK2, RIPK4, SIK2, SRPK1, TAOK3/JIK, TLK1, TNK1, TXK, TYK2, YES/YES1, YSK4/MAP3K19, and ZAK/MLTK.

DDR2 = DDR2 (Homo sapiens, UniProt Q16832); conditions: single concentration of 1 μM; read-out: percent inhibition of DDR2
Procedure: as §1

EPHA2 = EPHA2 (Homo sapiens, UniProt P29317); conditions: single concentration of 1 μM; read-out: percent inhibition of EPHA2
Procedure: as §1

EPHA5 = EPHA5 (Homo sapiens, UniProt P54756); conditions: single concentration of 1 μM; read-out: percent inhibition of EPHA5
Procedure: as §1

EPHA7 = EPHA7 (Homo sapiens, UniProt Q15375); conditions: single concentration of 1 μM; read-out: percent inhibition of EPHA7
Procedure: as §1

EPHB3 = EPHB3 (Homo sapiens, UniProt P54753); conditions: single concentration of 1 μM; read-out: percent inhibition of EPHB3
Procedure: as §1

FLT4/VEGFR3 = FLT4/VEGFR3 (Homo sapiens, UniProt P35916); conditions: single concentration of 1 μM; read-out: percent inhibition of FLT4/VEGFR3
Procedure: as §1

FYN = FYN (Homo sapiens, UniProt P06241); conditions: single concentration of 1 μM; read-out: percent inhibition of FYN
Chain of FYN (P06241 whole entry): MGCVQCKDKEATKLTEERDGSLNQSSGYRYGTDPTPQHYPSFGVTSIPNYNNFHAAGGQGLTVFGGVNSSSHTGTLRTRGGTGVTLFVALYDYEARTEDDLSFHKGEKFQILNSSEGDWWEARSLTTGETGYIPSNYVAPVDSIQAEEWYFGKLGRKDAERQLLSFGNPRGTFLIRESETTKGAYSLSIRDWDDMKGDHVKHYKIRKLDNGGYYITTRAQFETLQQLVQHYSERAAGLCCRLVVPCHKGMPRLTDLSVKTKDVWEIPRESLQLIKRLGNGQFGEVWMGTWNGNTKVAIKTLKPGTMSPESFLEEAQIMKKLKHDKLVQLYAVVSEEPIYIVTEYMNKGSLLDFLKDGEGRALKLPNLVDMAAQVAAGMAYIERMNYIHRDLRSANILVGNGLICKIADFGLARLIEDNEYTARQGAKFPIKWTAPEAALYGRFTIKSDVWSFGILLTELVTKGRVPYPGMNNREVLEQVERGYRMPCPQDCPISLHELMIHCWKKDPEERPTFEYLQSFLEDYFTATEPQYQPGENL
Procedure: as §1

HCK = HCK (Homo sapiens, UniProt P08631); conditions: single concentration of 1 μM; read-out: percent inhibition of HCK
Procedure: as §1

JAK1 = JAK1 (Homo sapiens, UniProt P23458); conditions: single concentration of 1 μM; read-out: percent inhibition of JAK1
Chain of JAK1 (P23458 whole entry): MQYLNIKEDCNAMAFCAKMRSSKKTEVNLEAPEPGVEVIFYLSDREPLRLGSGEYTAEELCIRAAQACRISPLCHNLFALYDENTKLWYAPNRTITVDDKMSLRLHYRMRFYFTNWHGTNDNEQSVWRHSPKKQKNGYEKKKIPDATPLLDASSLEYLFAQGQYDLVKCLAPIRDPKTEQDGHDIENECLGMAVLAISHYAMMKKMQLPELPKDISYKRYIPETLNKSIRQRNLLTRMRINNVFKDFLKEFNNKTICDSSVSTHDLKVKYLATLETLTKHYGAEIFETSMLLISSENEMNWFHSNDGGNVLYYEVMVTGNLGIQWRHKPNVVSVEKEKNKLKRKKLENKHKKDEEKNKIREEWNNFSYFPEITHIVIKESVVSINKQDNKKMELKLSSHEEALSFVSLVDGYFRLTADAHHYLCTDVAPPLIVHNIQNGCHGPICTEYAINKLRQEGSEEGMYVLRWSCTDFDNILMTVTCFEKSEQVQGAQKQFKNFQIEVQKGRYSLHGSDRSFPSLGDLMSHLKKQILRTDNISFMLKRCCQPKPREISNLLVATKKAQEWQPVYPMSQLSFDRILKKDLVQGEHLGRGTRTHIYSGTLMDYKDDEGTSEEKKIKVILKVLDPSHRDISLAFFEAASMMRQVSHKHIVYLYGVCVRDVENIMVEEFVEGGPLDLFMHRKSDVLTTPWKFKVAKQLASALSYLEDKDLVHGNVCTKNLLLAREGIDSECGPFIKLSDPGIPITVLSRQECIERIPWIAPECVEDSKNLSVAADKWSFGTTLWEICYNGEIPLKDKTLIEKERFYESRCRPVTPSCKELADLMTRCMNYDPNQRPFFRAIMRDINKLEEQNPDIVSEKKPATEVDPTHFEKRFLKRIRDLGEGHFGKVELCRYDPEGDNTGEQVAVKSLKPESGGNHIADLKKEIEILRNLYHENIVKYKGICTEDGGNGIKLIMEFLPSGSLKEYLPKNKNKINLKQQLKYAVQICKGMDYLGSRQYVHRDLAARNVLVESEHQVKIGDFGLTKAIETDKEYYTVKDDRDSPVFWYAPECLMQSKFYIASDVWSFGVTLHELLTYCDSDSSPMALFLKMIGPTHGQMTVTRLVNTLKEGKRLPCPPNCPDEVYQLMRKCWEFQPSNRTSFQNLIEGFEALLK
Procedure: as §1

KDR/VEGFR2 = KDR/VEGFR2 (Homo sapiens, UniProt P35968); conditions: single concentration of 1 μM; read-out: percent inhibition of KDR/VEGFR2
Procedure: as §1

KHS/MAP4K5 = KHS/MAP4K5 (Homo sapiens, UniProt Q9Y4K4); conditions: single concentration of 1 μM; read-out: percent inhibition of KHS/MAP4K5
Procedure: as §1

MYLK3 = MYLK3 (Homo sapiens, UniProt Q32MK0); conditions: single concentration of 1 μM; read-out: percent inhibition of MYLK3
Chain of MYLK3 (Q32MK0 whole entry): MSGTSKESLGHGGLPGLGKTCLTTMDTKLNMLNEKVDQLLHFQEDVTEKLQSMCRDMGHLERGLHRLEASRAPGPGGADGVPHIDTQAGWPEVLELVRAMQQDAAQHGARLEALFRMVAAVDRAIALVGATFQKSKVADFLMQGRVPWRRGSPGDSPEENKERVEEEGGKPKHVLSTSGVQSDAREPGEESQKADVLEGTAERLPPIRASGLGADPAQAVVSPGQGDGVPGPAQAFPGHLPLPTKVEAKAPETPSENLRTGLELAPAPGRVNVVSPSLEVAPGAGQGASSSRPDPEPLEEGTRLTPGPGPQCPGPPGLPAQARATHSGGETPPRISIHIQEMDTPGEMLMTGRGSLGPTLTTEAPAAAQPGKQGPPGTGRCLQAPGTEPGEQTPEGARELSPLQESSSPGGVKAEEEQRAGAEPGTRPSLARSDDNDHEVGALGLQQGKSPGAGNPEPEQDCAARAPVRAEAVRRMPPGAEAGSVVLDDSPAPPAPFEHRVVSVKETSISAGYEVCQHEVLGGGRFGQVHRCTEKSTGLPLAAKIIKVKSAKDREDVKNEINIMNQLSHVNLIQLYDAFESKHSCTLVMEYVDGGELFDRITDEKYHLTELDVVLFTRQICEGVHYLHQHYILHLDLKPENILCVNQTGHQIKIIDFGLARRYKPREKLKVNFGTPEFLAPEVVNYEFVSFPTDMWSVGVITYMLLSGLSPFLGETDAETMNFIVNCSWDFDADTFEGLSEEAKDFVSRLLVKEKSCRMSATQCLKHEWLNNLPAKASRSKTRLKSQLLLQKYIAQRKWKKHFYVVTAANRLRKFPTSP
Procedure: as §1

NEK5 = NEK5 (Homo sapiens, UniProt Q6P3R8); conditions: single concentration of 1 μM; read-out: percent inhibition of NEK5
Chain of NEK5 (Q6P3R8 whole entry): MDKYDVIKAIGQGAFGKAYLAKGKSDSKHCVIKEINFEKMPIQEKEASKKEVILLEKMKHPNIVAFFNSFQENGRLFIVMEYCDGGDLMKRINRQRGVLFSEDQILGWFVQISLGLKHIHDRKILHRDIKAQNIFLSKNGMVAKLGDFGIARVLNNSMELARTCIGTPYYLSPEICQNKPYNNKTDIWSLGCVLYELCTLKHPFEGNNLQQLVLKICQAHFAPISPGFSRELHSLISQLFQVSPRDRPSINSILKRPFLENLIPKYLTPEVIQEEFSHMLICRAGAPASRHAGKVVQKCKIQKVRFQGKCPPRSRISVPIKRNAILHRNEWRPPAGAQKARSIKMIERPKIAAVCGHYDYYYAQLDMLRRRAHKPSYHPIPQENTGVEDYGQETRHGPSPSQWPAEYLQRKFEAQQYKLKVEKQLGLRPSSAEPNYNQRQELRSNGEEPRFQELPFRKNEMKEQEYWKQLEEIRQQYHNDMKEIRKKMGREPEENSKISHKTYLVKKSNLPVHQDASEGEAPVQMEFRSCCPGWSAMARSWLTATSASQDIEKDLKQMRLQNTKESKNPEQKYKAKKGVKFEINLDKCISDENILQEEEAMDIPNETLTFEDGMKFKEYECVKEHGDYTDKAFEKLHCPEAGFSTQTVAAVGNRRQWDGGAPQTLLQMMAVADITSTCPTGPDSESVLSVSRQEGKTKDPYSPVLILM
Procedure: as §1

P38a/MAPK14 = P38a/MAPK14 (Homo sapiens, UniProt Q16539); conditions: single concentration of 1 μM; read-out: percent inhibition of P38a/MAPK14
Chain of P38a/MAPK14 (Q16539 whole entry): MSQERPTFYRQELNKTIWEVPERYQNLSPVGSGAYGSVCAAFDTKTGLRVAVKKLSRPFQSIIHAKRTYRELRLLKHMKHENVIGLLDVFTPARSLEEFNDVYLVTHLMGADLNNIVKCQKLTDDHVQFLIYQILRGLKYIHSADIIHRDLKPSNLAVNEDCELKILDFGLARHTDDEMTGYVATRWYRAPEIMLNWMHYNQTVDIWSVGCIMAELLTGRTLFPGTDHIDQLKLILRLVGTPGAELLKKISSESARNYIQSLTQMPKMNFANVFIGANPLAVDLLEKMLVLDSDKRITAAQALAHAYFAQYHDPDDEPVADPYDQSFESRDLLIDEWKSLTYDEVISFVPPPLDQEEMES
Procedure: as §1

PDGFRa = PDGFRa (Homo sapiens, UniProt P16234); conditions: single concentration of 1 μM; read-out: percent inhibition of PDGFRa
Procedure: as §1

RIPK2 = RIPK2 (Homo sapiens, UniProt O43353); conditions: single concentration of 1 μM; read-out: percent inhibition of RIPK2
Chain of RIPK2 (O43353 whole entry): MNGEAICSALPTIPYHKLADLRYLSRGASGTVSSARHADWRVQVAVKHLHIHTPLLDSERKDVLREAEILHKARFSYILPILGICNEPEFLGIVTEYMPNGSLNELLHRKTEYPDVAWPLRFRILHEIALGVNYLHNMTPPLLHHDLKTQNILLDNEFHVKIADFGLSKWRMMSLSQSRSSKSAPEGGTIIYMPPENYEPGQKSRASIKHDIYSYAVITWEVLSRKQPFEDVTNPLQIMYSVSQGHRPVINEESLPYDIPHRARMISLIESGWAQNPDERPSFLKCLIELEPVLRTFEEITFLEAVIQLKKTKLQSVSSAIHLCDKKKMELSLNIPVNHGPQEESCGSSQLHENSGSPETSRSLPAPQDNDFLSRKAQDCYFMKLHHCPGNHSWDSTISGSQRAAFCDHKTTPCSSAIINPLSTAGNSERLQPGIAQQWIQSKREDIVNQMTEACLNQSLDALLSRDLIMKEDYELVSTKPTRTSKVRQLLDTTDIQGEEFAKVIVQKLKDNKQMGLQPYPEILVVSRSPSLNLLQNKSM
Procedure: as §1

SIK2 = SIK2 (Homo sapiens, UniProt Q9H0K1); conditions: single concentration of 1 μM; read-out: percent inhibition of SIK2
Procedure: as §1

TAOK3/JIK = TAOK3/JIK (Homo sapiens, UniProt Q9H2K8); conditions: single concentration of 1 μM; read-out: percent inhibition of TAOK3/JIK
Procedure: as §1

TLK1 = TLK1 (Homo sapiens, UniProt Q9UKI8); conditions: single concentration of 1 μM; read-out: percent inhibition of TLK1
Procedure: as §1

YES/YES1 = YES/YES1 (Homo sapiens, UniProt P07947); conditions: single concentration of 1 μM; read-out: percent inhibition of YES/YES1
Chain of YES/YES1 (P07947 whole entry): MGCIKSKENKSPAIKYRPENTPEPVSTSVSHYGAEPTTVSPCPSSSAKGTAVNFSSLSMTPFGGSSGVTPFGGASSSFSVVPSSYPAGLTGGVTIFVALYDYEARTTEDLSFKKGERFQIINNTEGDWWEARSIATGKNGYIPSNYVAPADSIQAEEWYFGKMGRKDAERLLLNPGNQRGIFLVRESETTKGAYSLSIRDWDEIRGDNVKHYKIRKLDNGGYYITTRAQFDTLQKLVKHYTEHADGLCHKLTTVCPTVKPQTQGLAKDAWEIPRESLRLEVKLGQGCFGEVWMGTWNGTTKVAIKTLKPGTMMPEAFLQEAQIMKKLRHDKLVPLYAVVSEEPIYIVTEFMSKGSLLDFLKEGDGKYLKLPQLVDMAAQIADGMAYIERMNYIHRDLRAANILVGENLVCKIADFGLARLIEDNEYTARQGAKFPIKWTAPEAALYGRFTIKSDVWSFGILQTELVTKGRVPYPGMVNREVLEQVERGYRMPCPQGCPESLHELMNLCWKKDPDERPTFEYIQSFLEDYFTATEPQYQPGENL
Procedure: as §1

YSK4/MAP3K19 = YSK4/MAP3K19 (Homo sapiens, UniProt Q56UN5); conditions: single concentration of 1 μM; read-out: percent inhibition of YSK4/MAP3K19
Procedure: as §1

c-Src = c-Src (Homo sapiens, UniProt P12931); conditions: single concentration of 1 μM; read-out: percent inhibition of c-Src
Procedure: as §1

Measured: inhibition at 1 µM

Cc1ccc(Nc2ncc3cc(-c4cc(NC(=O)c5cccc(C(F)(F)F)c5)ccc4C)ncc3n2)cn1 [Compound No. 4, N-(4-methyl-3-(2-((6-methylpyridin-3-yl)amino)pyrido[3,4-d]pyrimidin-6-yl)phenyl)-3-(trifluoromethyl)benzamide]
≥ 70%: all assays above
